{
  "source": "patent US8436049B2",
  "about": "“Uses of pentamidine and related compounds” (State of Oregon Acting By and Through the State Board of …, priority 2008, dated 2013)",
  "key": {"[1]": {"biological_target": "T1, MBNL-CUG RNA complex (Homo sapiens, UniProt Q9NR56)", "T1 construct": "Both the full length MBNL and MBNL (1-260) constructs were cloned using BamHI and NotI restriction sites; GST (N, cleaved yes); made in house; host or cells: E. coli BL21-Star", "T1 sequence (Q9NR56 1-382 isoform Q9NR56-5)": "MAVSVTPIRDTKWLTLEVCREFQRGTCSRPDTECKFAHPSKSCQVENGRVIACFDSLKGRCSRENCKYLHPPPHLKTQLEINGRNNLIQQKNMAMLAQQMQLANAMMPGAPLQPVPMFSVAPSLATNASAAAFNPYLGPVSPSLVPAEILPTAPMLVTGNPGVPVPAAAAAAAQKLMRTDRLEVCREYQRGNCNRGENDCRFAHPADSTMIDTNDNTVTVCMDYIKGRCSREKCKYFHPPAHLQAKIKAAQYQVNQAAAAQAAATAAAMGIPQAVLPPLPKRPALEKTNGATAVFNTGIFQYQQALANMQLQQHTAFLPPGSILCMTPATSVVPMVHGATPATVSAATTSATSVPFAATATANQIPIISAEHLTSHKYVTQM", "test": "Gel shift assay, disruption of MBNL binding to short CUG repeat RNA", "procedure": "MBNL1 (MBNL) was PCR amplified and was cloned into GST fusion vector pGEX-6P-1 (GE Healthcare, Piscataway, N.J.), using DNA encoding a MBNL isoform with amino acids 1-382). Both the full length MBNL and MBNL (1-260) constructs were cloned using BamHI and NotI restriction sites. Using BL21-Star expression cells (Invitrogen, Carlsbad, Calif.), protein expression was induced with 0.25 mM IPTG at an OD600 of about 0.5-1, for 3-4 hours at 37° C. Cells were lysed in 30 ml of buffer (500 mM NaCl, 25 mM Tris pH 7.5, 10 mM β-mercaptoethanol (BME) and 5% glycerol) using 1 mg/ml of lysozyme, followed by sonication (3×30 seconds). Cell extract was centrifuged for 15 minutes at 17,000 rpm, and lysate which contained GST-MBNL was collected. GST-MBNL was bound to GST affinity beads for 30 minutes at 4° C. […] The protein was then run over an anion exchange (Q) column. […] MBNL was collected in the column flow through, concentrated and dialyzed into storage buffer (30% glycerol, 300 mM NaCl, 20 mM Tris pH 7.5, 5 mM BME) and stored at −80° C. Aliquots were removed from −80° C. and temporarily placed at −20° C. until used for an experiment.\nAll RNA substrates that were radiolabeled were ordered from IDT DNA (Coralville, Iowa), and 5′ end-labeled using [γ-^32P]ATP. All radiolabeled RNAs were purified on 8% polyacrylamide denaturing gels.\nSolutions for the protein-RNA binding experiments contained 125 mM NaCl, 5 mM MgCl2, 20 mM Tris (pH 7.5), 7.5% glycerol, 2 mg/ml bovine serum albumin, and 0.1 mg/ml heparin. Prior to incubation, RNA substrates were annealed by incubation at 95° C. for 2 minutes and then placed directly on ice for 20 minutes in 66 mM NaCl, 6.7 mM MgCl2, and 27 mM Tris (pH 7.5). Protein was then added to the RNA in the presence or absence of the small molecule. The binding reaction was carried out in a 10 μL volume and was incubated for 10 minutes at room temperature before 2-4 μL were loaded on a pre-chilled 4° C. gel. RNA and RNA-protein complexes were separated on 3% acrylamide (37.5:1), 0.3% agarose (low melting point), 0.5× Tris-Borate (TB) gels, run for approximately 2-3 hours at 4° C. at 25-50 volts. Gels were dried and autoradiographed. For the neomycin B and CUG8 gel shift, an 8% acrylamide (29:1), 0.5×TB gel was used and run for 3 hours at 4° C. at 175 volts. All small molecules were dissolved in either water or ethanol, according to the manufacturer's guidance for solubility.\nFor binding curves, gels were quantified using ImageQuant® software (Molecular Dynamics, Piscataway, N.J.). The percent RNA bound was determined by taking the ratio of RNA-protein complex to total RNA, per lane. Any counts in the well were discarded as it was unapparent if the RNA was bound by protein, small molecule or was in an aggregate. Binding curves were graphed using KaleidaGraph software (Synergy Software, Reading, Pa.). For the neomycin B and CUG8 gel shift, the apparent Kd was determined using Equation 1, where Y=fraction bound, m0=small molecule concentration, m1=total RNA concentration, and m2=Kd.\nFor determining the EC50, Equation 3 was used, where m0=small molecule concentration, m1=EC50, m2=Hill coefficient, and m3=fraction MBNL bound without small molecule present. Y=m3/[1+(m0/m1)^m2] Equation 3 Results"}, "[2]": {"tested_on": "CUG960 RNA nuclear foci / MBNL-GFP in HeLa cells", "test": "CUG foci formation and MBNL-GFP sequestration in HeLa cells transfected with MBNL-GFP and CUG960", "type": "cell-based", "settings": "50 μM", "procedure": "HeLa cells were plated in 6 well plates onto coverslips pre-treated with poly-L-lysine. Cells were transfected as described in Example 3. For transfection, 50 ng of MBNL-eGFP plasmid and 500 ng of CUG960 plasmid were transfected for each experiment. A total of 1 μg of plasmid DNA was transfected, with the additional amount being empty pcDNA3 vector. After transfection, pentamidine was added and the cells were fixed 16 hours later.\nCells were fixed for 15 min at room temperature (RT) with 4% paraformaldehyde and washed 5 times for 2 min in 1×PBS at RT. Cells were stored at 4° C., if not probed immediately. For fluorescence in situ hybridization, cells were permeabilized with 2% pre-chilled acetone in 1×PBS, at RT for 5 min. Cells were pre-washed with 30% formamide, 2×SSC for 10 min at RT. Cells were then probed for 2 hours at 37° C., with 1 ng/μl Cy3 CAG10 probe (Integrated DNA Technologies, Coralville, Iowa) in 30% formamide, 2×SSC, 0.02% BSA, 66 μg/ml yeast tRNA, 2 mM vanadyl complex. The cells were washed for 30 min in 30% formamide, 2×SSC at 42° C., then with 1×SSC for 30 min at RT. […] MBNL-eGFP was visualized using GFP fluorescence, exciting from 450-490 nm and visualizing at 520 nm. […]\nCells were scored by eye with the following criteria. […] 201 cells were scored for the MBNL-GFP and CUG960 double transfection. 242 cells treated with pentamidine (50 μM) were scored. […]"}, "[3]": {"settings": "mouse, in vivo"}},
  "note": "Where “and” joins values, the source holds several entries; their conditions need not be identical. Equal entries are not always repeated.",
  "data": [
    {"smiles": "N=C(N)c1ccc(OCCCCCOc2ccc(C(=N)N)cc2)cc1", "note": "[pentamidine]", "values": [
      {"measurement": "Disruption of the MBNL-CUG interaction", "setting": "[1]; gel shift screen, increasing amounts of small molecule", "value": "disrupt the MBNL-CUG interaction at micromolar concentrations"},
      {"measurement": "EC50", "setting": "[1]; gel shift, short CUG repeat RNA (CUG4), read-out: EC50 for disruption of MBNL binding to CUG repeat construct", "value": "~58 µM and 58 µM"},
      {"measurement": "Characteristics of CUG RNA foci", "setting": "[2]", "value": "the foci became increasingly more diffuse"},
      {"measurement": "MBNL sequestration to foci", "setting": "[2]", "value": "partially relieved in many cells"},
      {"measurement": "Toxicity in mice", "setting": "[3]", "value": "substantial toxicity"}
    ]}
  ]
}
